Target: beta2-adrenergic receptors in A431 (Homo sapiens, UniProt P07550)
Conditions: quiescent A431 cells; epinephrine gradient; responses resembled classical dose-dependent responses
Experimental: Human epidermoid carcinoma A431 cells were obtained from American Type Cell Culture. A431 cells were grown in Dulbecco's modified Eagle's medium (DMEM) supplemented with 10% fetal bovine serum (FBS), 4.5 g/liter glucose, 2 mM glutamine, and antibiotics. For cell culture, ˜4×10^4 cells suspended in 6 μl the medium containing 10% FBS were injected into the chamber, and were cultured at 37° C. under air/5% CO2 until ˜95% confluency was reached (˜1 day). To prevent drying during the culture, the biosensor device was maintained within a petri dish with a cover, and extra cell medium within the dish. The cells were then subject to starvation with the medium without any FBS for overnight. […] The optical system allows one to collect the resonant image of whole sensor at the single cell.
Coming RWG imaging system was used for label-free biosensor cell assays. The imaging system is capable of high resolution imaging, with a spatial resolution of 6 microns in the direction perpendicular to the propagation path of the coupled light, a resolution of about 150 microns in the direction parallel to the propagation path of the coupled light. The cellular responses across the whole sensor were recorded in real time at each pixel (6 microns×6 microns). The cellular responses at defined locations or zones from the inlet to the outlet were averaged to generate location-dependent cellular responses. […]

Chain of beta2-adrenergic receptors in A431 (P07550 whole entry): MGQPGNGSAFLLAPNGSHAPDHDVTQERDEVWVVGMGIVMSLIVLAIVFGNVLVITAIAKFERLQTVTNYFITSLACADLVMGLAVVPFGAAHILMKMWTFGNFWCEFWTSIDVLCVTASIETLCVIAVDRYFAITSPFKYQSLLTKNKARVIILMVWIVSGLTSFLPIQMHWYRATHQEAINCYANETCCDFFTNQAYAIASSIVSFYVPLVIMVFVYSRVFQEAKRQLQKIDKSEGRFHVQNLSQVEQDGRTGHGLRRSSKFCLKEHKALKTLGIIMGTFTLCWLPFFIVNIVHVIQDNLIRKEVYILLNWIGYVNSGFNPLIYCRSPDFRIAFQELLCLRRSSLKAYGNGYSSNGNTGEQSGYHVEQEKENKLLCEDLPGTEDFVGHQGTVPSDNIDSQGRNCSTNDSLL

Structure (SMILES): CNC[C@H](O)c1ccc(O)c(O)c1 [epinephrine]
- chemoattractant determination from location-dependent DMR responses: not a chemoattractant

From US20100130829A1, “MATERIALS AND METHODS FOR DETECTING EARLY CELL MIGRATION EVENTS” (priority 2008, published 2010)
